According to ChEMBL document CHEMBL3046384, “Pharmacophore modeling and structure-based virtual screening for a novel switch region target of bacterial RNA polymerase” (Med Chem Res, 2012):

Assay: Inhibition of RNA polymerase of Bacteria

Compound	IC50
C/C=C/C/C=C(\C)C(O)CC/C(C)=C/C=C(\C)C(=O)c1c(O)cc([C@H](C)CC/C=C/NC(=O)OC)oc1=O (stereo partly drawn) [CORALLOPYRONIN A]	4000 nM
CCC/C(C)=C/C=C(\C)C(=O)c1c(O)cc([C@H](C)CC/C=C/NC(=O)OC)oc1=O [MYXOPORIN A]	1000 nM
C/C(=C\Cc1ccccc1)CCC(=O)C[C@H]1C[C@H](O)C/C(C)=C/C/C=C/C/C(CC(=O)O)=C\C(=O)O1 [RIPOSTATIN]	800 nM
